# Source: PubChem BioAssay (NCI)
#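 Five concentrations, 48 hours, 96-well plates. Here, GI50 denotes the concentration required for 50% inhibition of growth. TGI is the concentration that stops growth completely.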
# Key:
# Assay in all cases: DTP human tumour cell line panel, 48 h
# [1] = test system: SR leukemia
# [2] = test system: CCRF-CEM leukemia
# [3] = test system: DLD-1 colon
# [4] = test system: CAKI-1 renal
# [5] = test system: IGROV1 ovarian
# [6] = test system: DMS 273 small cell lung
# [7] = test system: SK-OV-3 ovarian
# [8] = test system: COLO 205 colon
# [9] = test system: SF-295 CNS
# [10] = test system: 786-0 renal
# [11] = test system: MALME-3M melanoma
# [12] = test system: UACC-257 melanoma
# [13] = test system: OVCAR-4 ovarian
# [14] = test system: HOP-62 NSCLC
# [15] = test system: HL-60(TB) leukemia
# [16] = test system: SK-MEL-2 melanoma
# [17] = test system: LOX IMVI melanoma
# [18] = test system: M19-MEL melanoma
# [19] = test system: UACC-62 melanoma
# [20] = test system: SF-268 CNS
# [21] = test system: EKVX NSCLC
# [22] = test system: SW-620 colon
# [23] = test system: NCI-H460 lung
# [24] = test system: M14 melanoma
# [25] = test system: HCT-15 colon
# [26] = test system: KM20L2 colon
# [27] = test system: NCI-H522 lung
# [28] = test system: OVCAR-8 ovarian
# [29] = test system: OVCAR-5 ovarian
# [30] = test system: LXFL 529 NSCLC
# [31] = test system: SNB-78 CNS
# [32] = test system: HCT-116 colon
# [33] = test system: RPMI-8226 leukemia
# [34] = test system: SF-539 CNS
# [35] = test system: KM12 colon
# [36] = test system: A549 NSCLC
# [37] = test system: SK-MEL-5 melanoma
# [38] = test system: DMS 114 small cell lung
# [39] = test system: ACHN renal
# [40] = test system: UO-31 renal
# [41] = test system: MOLT-4 leukemia
# [42] = test system: HT29 colon
# [43] = test system: SN12C renal
# [44] = test system: TK-10 renal
# [45] = test system: K-562 leukemia
# [46] = test system: A498 renal
# [47] = test system: SNB-19 CNS
# [48] = test system: U251 CNS
# [49] = test system: RXF 393 renal
# [50] = test system: OVCAR-3 ovarian
# [51] = test system: XF 498 CNS
# [52] = test system: NCI-H226 lung
# [53] = test system: NCI-H23 lung
# [54] = test system: HCC-2998 colon
# [55] = test system: SK-MEL-28 melanoma
# [56] = test system: HOP-18 NSCLC
# [57] = test system: HOP-92 NSCLC
# [58] = test system: SNB-75 CNS
smiles,measurement,setting,value
O=C1C=CC=CC2CC=C[C@@H](O)C12 (stereo partly drawn),TGI,[1],44.2 µM
same,TGI,[2],> 100 µM
same,TGI,[3],> 100 µM
same,TGI,[4],> 100 µM
same,TGI,[5],> 100 µM
same,TGI,[6],51.5 µM
same,TGI,[7],> 100 µM
same,TGI,[8],39.5 µM
same,TGI,[9],48.5 µM
same,TGI,[10],33.8 µM
same,TGI,[11],46.8 µM
same,TGI,[12],29.7 µM
same,TGI,[13],> 100 µM
same,TGI,[14],> 100 µM
same,TGI,[15],37 µM
same,TGI,[16],58.5 µM
same,TGI,[17],38.9 µM
same,TGI,[18],34.2 µM
same,TGI,[19],38.5 µM
same,TGI,[20],54.5 µM
same,TGI,[21],63.5 µM
same,TGI,[22],35.3 µM
same,TGI,[23],38 µM
same,TGI,[24],50.7 µM
same,TGI,[25],35.2 µM
same,TGI,[26],56 µM
same,TGI,[27],26.8 µM
same,TGI,[28],> 100 µM
same,TGI,[29],63 µM
same,TGI,[30],36.2 µM
same,TGI,[31],> 100 µM
same,TGI,[32],27.7 µM
same,TGI,[33],15.3 µM
same,TGI,[34],63.9 µM
same,TGI,[35],24.5 µM
same,TGI,[36],67.7 µM
same,TGI,[37],38 µM
same,TGI,[38],38.7 µM
same,TGI,[39],31.8 µM
same,TGI,[40],31.5 µM
same,TGI,[41],> 100 µM
same,TGI,[42],37.7 µM
same,TGI,[43],47.2 µM
same,TGI,[44],> 100 µM
same,TGI,[45],> 100 µM
same,TGI,[46],38.2 µM
same,TGI,[47],54.3 µM
CC12N=NN(c3ccc([N+](=O)[O-])cc3)C1(O)c1ccccc1C2=O (stereo not drawn),TGI,[1],> 100 µM
same,TGI,[5],> 100 µM
same,TGI,[6],> 100 µM
same,TGI,[7],> 100 µM
same,TGI,[8],> 100 µM
same,TGI,[9],> 100 µM
same,TGI,[10],> 100 µM
same,TGI,[11],> 100 µM
same,TGI,[12],> 100 µM
same,TGI,[48],> 100 µM
same,TGI,[14],> 100 µM
same,TGI,[15],> 100 µM
same,TGI,[17],> 100 µM
same,TGI,[18],> 100 µM
same,TGI,[19],> 100 µM
same,TGI,[20],> 100 µM
same,TGI,[21],> 100 µM
same,TGI,[22],> 100 µM
same,TGI,[23],> 100 µM
same,TGI,[24],> 100 µM
same,TGI,[49],> 100 µM
same,TGI,[25],> 100 µM
same,TGI,[26],> 100 µM
same,TGI,[50],> 100 µM
same,TGI,[27],> 100 µM
same,TGI,[28],> 100 µM
same,TGI,[51],> 100 µM
same,TGI,[30],> 100 µM
same,TGI,[32],> 100 µM
same,TGI,[33],> 100 µM
same,TGI,[52],> 100 µM
same,TGI,[34],> 100 µM
same,TGI,[35],> 100 µM
same,TGI,[36],> 100 µM
same,TGI,[37],> 100 µM
same,TGI,[38],> 100 µM
same,TGI,[39],> 100 µM
same,TGI,[40],> 100 µM
same,TGI,[53],> 100 µM
same,TGI,[42],> 100 µM
same,TGI,[43],> 100 µM
same,TGI,[54],> 100 µM
same,TGI,[44],> 100 µM
same,TGI,[47],> 100 µM
Cc1ccc(-c2cc(-c3ccco3)c(C#N)c(=O)[nH]2)cc1,TGI,[2],> 100 µM
same,TGI,[3],> 100 µM
same,TGI,[5],> 100 µM
same,TGI,[6],> 100 µM
same,TGI,[7],97.6 µM
same,TGI,[8],> 100 µM
same,TGI,[9],> 100 µM
same,TGI,[10],> 100 µM
same,TGI,[11],> 100 µM
same,TGI,[12],> 100 µM
same,TGI,[55],> 100 µM
same,TGI,[56],> 100 µM
same,TGI,[13],> 100 µM
same,TGI,[48],> 100 µM
same,TGI,[14],> 100 µM
same,TGI,[15],> 100 µM
same,TGI,[17],> 100 µM
same,TGI,[18],> 100 µM
same,TGI,[19],> 100 µM
same,TGI,[20],> 100 µM
same,TGI,[21],> 100 µM
same,TGI,[22],> 100 µM
same,TGI,[23],> 100 µM
same,TGI,[24],> 100 µM
same,TGI,[49],> 100 µM
same,TGI,[25],> 100 µM
same,TGI,[26],> 100 µM
same,TGI,[50],> 100 µM
same,TGI,[27],> 100 µM
same,TGI,[28],> 100 µM
same,TGI,[29],> 100 µM
same,TGI,[57],> 100 µM
same,TGI,[30],> 100 µM
same,TGI,[31],> 100 µM
same,TGI,[32],> 100 µM
same,TGI,[33],> 100 µM
same,TGI,[52],> 100 µM
same,TGI,[34],> 100 µM
same,TGI,[35],> 100 µM
same,TGI,[58],> 100 µM
same,TGI,[36],> 100 µM
same,TGI,[37],> 100 µM
same,TGI,[39],> 100 µM
same,TGI,[40],> 100 µM
same,TGI,[53],> 100 µM
same,TGI,[41],> 100 µM
same,TGI,[42],> 100 µM
same,TGI,[43],> 100 µM
same,TGI,[54],> 100 µM
same,TGI,[44],> 100 µM
same,TGI,[45],> 100 µM
same,TGI,[46],> 100 µM
same,TGI,[47],> 100 µM
C1C[OH+]CC[OH+]CCNCC[OH+]CC[OH+]CCN1.[Cl-].[Pt+4],GI50,[2],30.1 µM
same,TGI,[2],> 100 µM
same,GI50,[3],> 100 µM
same,TGI,[3],> 100 µM
same,GI50,[4],> 100 µM
same,TGI,[4],> 100 µM
same,GI50,[5],> 100 µM
same,TGI,[5],> 100 µM
same,GI50,[7],> 100 µM
same,TGI,[7],> 100 µM
same,GI50,[8],> 100 µM
same,TGI,[8],> 100 µM
same,GI50,[9],> 100 µM
same,TGI,[9],> 100 µM
same,GI50,[10],> 100 µM
same,TGI,[10],> 100 µM
same,GI50,[11],> 100 µM
same,TGI,[11],> 100 µM
same,GI50,[12],> 100 µM
same,TGI,[12],> 100 µM
same,GI50,[55],> 100 µM
same,TGI,[55],> 100 µM
same,GI50,[56],> 100 µM
same,TGI,[56],> 100 µM
same,GI50,[13],> 100 µM
same,TGI,[13],> 100 µM
same,GI50,[48],> 100 µM
same,TGI,[48],> 100 µM
same,GI50,[14],> 100 µM
same,TGI,[14],> 100 µM
same,GI50,[17],> 100 µM
same,TGI,[17],> 100 µM
same,GI50,[19],91.9 µM
same,TGI,[19],> 100 µM
same,GI50,[20],> 100 µM
same,TGI,[20],> 100 µM
same,GI50,[21],> 100 µM
same,TGI,[21],> 100 µM
same,GI50,[22],57.3 µM
same,TGI,[22],> 100 µM
same,GI50,[24],> 100 µM
same,TGI,[24],> 100 µM
same,GI50,[26],> 100 µM
same,TGI,[26],> 100 µM
same,GI50,[50],> 100 µM
same,TGI,[50],> 100 µM
same,GI50,[27],26.3 µM
same,TGI,[27],> 100 µM
same,GI50,[28],> 100 µM
same,TGI,[28],> 100 µM
same,GI50,[29],> 100 µM
same,TGI,[29],> 100 µM
same,GI50,[57],> 100 µM
same,TGI,[57],> 100 µM
same,GI50,[30],63.7 µM
same,TGI,[30],> 100 µM
same,GI50,[32],> 100 µM
same,TGI,[32],> 100 µM
same,GI50,[33],> 100 µM
same,TGI,[33],> 100 µM
same,GI50,[52],> 100 µM
same,TGI,[52],> 100 µM
same,GI50,[34],> 100 µM
same,TGI,[34],> 100 µM
same,GI50,[35],> 100 µM
same,TGI,[35],> 100 µM
same,GI50,[58],> 100 µM
same,TGI,[58],> 100 µM
same,GI50,[36],> 100 µM
same,TGI,[36],> 100 µM
same,GI50,[37],> 100 µM
same,TGI,[37],> 100 µM
same,GI50,[39],> 100 µM
same,TGI,[39],> 100 µM
same,GI50,[40],> 100 µM
same,TGI,[40],> 100 µM
same,GI50,[53],> 100 µM
same,TGI,[53],> 100 µM
same,GI50,[41],> 100 µM
same,TGI,[41],> 100 µM
same,GI50,[42],> 100 µM
same,TGI,[42],> 100 µM
same,GI50,[43],> 100 µM
same,TGI,[43],> 100 µM
same,GI50,[54],> 100 µM
same,TGI,[54],> 100 µM
same,GI50,[44],> 100 µM
same,TGI,[44],> 100 µM
same,GI50,[45],> 100 µM
same,TGI,[45],> 100 µM
same,GI50,[46],> 100 µM
same,TGI,[46],> 100 µM
same,GI50,[47],> 100 µM
same,TGI,[47],> 100 µM
